ChEMBL document CHEMBL1201862, “PubChem BioAssay data set” (2004)
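Step 1: Grow cells in 96-well plates. Step 2: Expose to compound for 48 hours at 5 concentrations. Step 3: Interpolate endpoints linearly; if unreached, use highest concentration. Abbreviation: GI50, concentration required for 50% inhibition of growth.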 The source made the active and inactive calls. No stated cut-off is given here; in the data, active = GI50 up to about 1.1 µM and inactive = higher.

Legend:
Assay in all cases: growth of human tumour cells (NCI), 48 h
IGROV-1 = system: IGROV-1
SR = system: SR
Malme-3M = system: Malme-3M
HL-60 = system: HL-60
HOP-62 = system: HOP-62
HCT-116 = system: HCT-116
COLO 205 = system: COLO 205
RXF 393 = system: RXF 393
MOLT-4 = system: MOLT-4
HCT-15 = system: HCT-15
SK-MEL-2 = system: SK-MEL-2
KM12 = system: KM12
LOX IMVI = system: LOX IMVI
A549 = system: A549
HOP-92 = system: HOP-92
CAKI-1 = system: CAKI-1
UACC-62 = system: UACC-62
HT-29 = system: HT-29
OVCAR-8 = system: OVCAR-8
Hs-578T = system: Hs-578T

Structure (SMILES) | GI50 (IGROV-1) | GI50 (SR) | GI50 (Malme-3M) | GI50 (HL-60) | GI50 (HOP-62) | GI50 (HCT-116) | GI50 (COLO 205) | GI50 (RXF 393) | GI50 (MOLT-4) | GI50 (HCT-15) [µM] | GI50 (SK-MEL-2) | GI50 (KM12) | GI50 (LOX IMVI) | GI50 (A549) | GI50 (HOP-92) | GI50 (CAKI-1) | GI50 (UACC-62) | GI50 (HT-29) | GI50 (OVCAR-8) | GI50 (Hs-578T)
CCC(C)(O)c1cn(-c2ccc(Cl)cc2)nn1 (centres undefined) | > 100 µM (inactive) | > 100 µM (inactive) | > 100 µM (inactive) | > 100 µM (inactive) | > 100 µM (inactive) | > 100 µM (inactive) | > 100 µM (inactive) | > 100 µM (inactive) | > 100 µM (inactive) | > 100 | > 100 µM (inactive) | > 100 µM (inactive) | > 100 µM (inactive) | > 100 µM (inactive) | > 100 µM (inactive) | > 100 µM (inactive) | > 100 µM (inactive) | > 100 µM (inactive) | > 100 µM (inactive) | –
NC1=NS(=O)(=O)Nc2nc(-c3ccc([N+](=O)[O-])cc3)[nH]c21 | > 100 µM (inactive) | > 100 µM (inactive) | > 100 µM (inactive) | > 100 µM (inactive) | > 100 µM (inactive) | > 100 µM (inactive) | > 100 µM (inactive) | > 100 µM (inactive) | > 100 µM (inactive) | > 100 | > 100 µM (inactive) | > 100 µM (inactive) | > 100 µM (inactive) | > 100 µM (inactive) | > 100 µM (inactive) | > 100 µM (inactive) | > 100 µM (inactive) | > 100 µM (inactive) | > 100 µM (inactive) | –
COC(=O)C1C2C=CC(C2)C1(C(=O)OC)[S+]([O-])CC12CCC(CC1O)C2(C)C (centres undefined) | > 100 µM (inactive) | 31.2 µM (inactive) | > 100 µM (inactive) | > 100 µM (inactive) | > 100 µM (inactive) | > 100 µM (inactive) | > 100 µM (inactive) | 77.8 µM (inactive) | > 100 µM (inactive) | 19.2 | > 100 µM (inactive) | > 100 µM (inactive) | 21.1 µM (inactive) | > 100 µM (inactive) | > 100 µM (inactive) | > 100 µM (inactive) | > 100 µM (inactive) | > 100 µM (inactive) | > 100 µM (inactive) | –
N#CC1CCCCOCCOCCOCCOCCOCCCCCC1=O (centres undefined) | > 100 µM (inactive) | > 100 µM (inactive) | > 100 µM (inactive) | > 100 µM (inactive) | > 100 µM (inactive) | > 100 µM (inactive) | > 100 µM (inactive) | > 100 µM (inactive) | > 100 µM (inactive) | > 100 | > 100 µM (inactive) | > 100 µM (inactive) | > 100 µM (inactive) | > 100 µM (inactive) | – | > 100 µM (inactive) | > 100 µM (inactive) | > 100 µM (inactive) | > 100 µM (inactive) | –
CCCCCCC(=O)OC[n+]1ccc2c(C)c3[nH]c4ccccc4c3c(C)c2c1 | 1.47 µM (inactive) | 0.101 µM (active) | 1.61 µM (inactive) | 2.23 µM (inactive) | 2.08 µM (inactive) | 0.376 µM (active) | – | 1 µM (active) | 0.118 µM (active) | 0.348 | 5.38 µM (inactive) | – | 0.537 µM (active) | 0.474 µM (active) | 3.18 µM (inactive) | 1.58 µM (inactive) | 2.72 µM (inactive) | 0.347 µM (active) | 0.34 µM (active) | –
CN1CN(C2OC(CO)C(O)C2O)c2nc(N)[nH]c(=O)c21 (centres undefined) | > 100 µM (inactive) | > 100 µM (inactive) | > 100 µM (inactive) | > 100 µM (inactive) | > 100 µM (inactive) | > 100 µM (inactive) | > 100 µM (inactive) | > 100 µM (inactive) | > 100 µM (inactive) | > 100 | > 100 µM (inactive) | > 100 µM (inactive) | – | > 100 µM (inactive) | > 100 µM (inactive) | > 100 µM (inactive) | > 100 µM (inactive) | > 100 µM (inactive) | > 100 µM (inactive) | –
C/C(CCn1[nH]c(=O)ccc1=O)=N\O | > 100 µM (inactive) | > 100 µM (inactive) | > 100 µM (inactive) | > 100 µM (inactive) | > 100 µM (inactive) | > 100 µM (inactive) | – | > 100 µM (inactive) | > 100 µM (inactive) | > 100 | > 100 µM (inactive) | > 100 µM (inactive) | > 100 µM (inactive) | > 100 µM (inactive) | > 100 µM (inactive) | > 100 µM (inactive) | > 100 µM (inactive) | > 100 µM (inactive) | > 100 µM (inactive) | –
O=C(CC1=Nc2nnc(CCCCCCCc3nnc4n3C(=O)C(CC(=O)c3ccc5ccccc5c3)=N4)n2C1=O)c1ccc2ccccc2c1 | 66.2 µM (inactive) | > 100 µM (inactive) | > 100 µM (inactive) | > 100 µM (inactive) | > 100 µM (inactive) | > 100 µM (inactive) | > 100 µM (inactive) | > 100 µM (inactive) | > 100 µM (inactive) | > 100 | > 100 µM (inactive) | > 100 µM (inactive) | > 100 µM (inactive) | > 100 µM (inactive) | > 100 µM (inactive) | > 100 µM (inactive) | > 100 µM (inactive) | > 100 µM (inactive) | > 100 µM (inactive) | –
COc1cc2c(cc1OC)-c1cc(OC)c(OC)cc1[C@H]1CN3CCC[C@@]3(O)C=C21 | < 0.0001 µM (active) | < 0.0001 µM (active) | < 0.0001 µM (active) | < 0.0001 µM (active) | < 0.0001 µM (active) | < 0.0001 µM (active) | < 0.0001 µM (active) | 0.01 µM (active) | < 0.0001 µM (active) | < 0.0001 | < 0.0001 µM (active) | < 0.0001 µM (active) | < 0.0001 µM (active) | < 0.0001 µM (active) | < 0.0001 µM (active) | < 0.0001 µM (active) | < 0.0001 µM (active) | < 0.0001 µM (active) | < 0.0001 µM (active) | –
COCC1C(=O)c2cc3c(cc2C12C=CC1(C=C2)OCCO1)OCO3 (centres undefined) | 15.4 µM (inactive) | 1.82 µM (inactive) | 13.8 µM (inactive) | 2.09 µM (inactive) | 21.6 µM (inactive) | 2.21 µM (inactive) | 10.3 µM (inactive) | 8.85 µM (inactive) | 1.65 µM (inactive) | 1.6 | 11.7 µM (inactive) | 4.57 µM (inactive) | – | 15.4 µM (inactive) | 14.5 µM (inactive) | 15.9 µM (inactive) | 12.2 µM (inactive) | 3.94 µM (inactive) | 3.58 µM (inactive) | –
Cc1cc(Br)cc(C)c1NC(=O)C(=O)C(C(=O)c1ccncc1)C1OC(=O)c2ccccc21 (centres undefined) | > 100 µM (inactive) | > 100 µM (inactive) | > 100 µM (inactive) | > 100 µM (inactive) | > 100 µM (inactive) | > 100 µM (inactive) | > 100 µM (inactive) | > 100 µM (inactive) | > 100 µM (inactive) | > 100 | – | > 100 µM (inactive) | > 100 µM (inactive) | > 100 µM (inactive) | > 100 µM (inactive) | > 100 µM (inactive) | > 100 µM (inactive) | – | > 100 µM (inactive) | –
CN(C)CCCNC(=O)c1cc(NC(=O)c2cc(NS(=O)(=O)c3ccc4c(c3)C(=O)c3ccccc3C4=O)cn2C)cn1C | > 100 µM (inactive) | 27 µM (inactive) | 28.4 µM (inactive) | 97.9 µM (inactive) | > 100 µM (inactive) | > 100 µM (inactive) | 83.9 µM (inactive) | > 100 µM (inactive) | 24 µM (inactive) | > 100 | > 100 µM (inactive) | 80.7 µM (inactive) | 55.3 µM (inactive) | > 100 µM (inactive) | > 100 µM (inactive) | > 100 µM (inactive) | 89.9 µM (inactive) | 65.3 µM (inactive) | > 100 µM (inactive) | –
N/N=c1/nc2n(c3ncccc13)C=CNN2 | > 100 µM (inactive) | > 100 µM (inactive) | > 100 µM (inactive) | > 100 µM (inactive) | > 100 µM (inactive) | > 100 µM (inactive) | > 100 µM (inactive) | > 100 µM (inactive) | > 100 µM (inactive) | > 100 | > 100 µM (inactive) | > 100 µM (inactive) | > 100 µM (inactive) | > 100 µM (inactive) | > 100 µM (inactive) | > 100 µM (inactive) | > 100 µM (inactive) | > 100 µM (inactive) | > 100 µM (inactive) | –
CC1CC(NN)=Nc2ccccc2N1 (centres undefined) | > 100 µM (inactive) | – | 16.6 µM (inactive) | 60.3 µM (inactive) | > 100 µM (inactive) | > 100 µM (inactive) | > 100 µM (inactive) | – | > 100 µM (inactive) | > 100 | > 100 µM (inactive) | > 100 µM (inactive) | – | > 100 µM (inactive) | – | > 100 µM (inactive) | > 100 µM (inactive) | > 100 µM (inactive) | > 100 µM (inactive) | > 100 µM (inactive)
O=C1/C(=N\O)c2ccccc2S1(=O)=O | > 100 µM (inactive) | 79.3 µM (inactive) | 55.3 µM (inactive) | 25.2 µM (inactive) | > 100 µM (inactive) | > 100 µM (inactive) | 13.6 µM (inactive) | > 100 µM (inactive) | > 100 µM (inactive) | > 100 | > 100 µM (inactive) | > 100 µM (inactive) | > 100 µM (inactive) | > 100 µM (inactive) | > 100 µM (inactive) | 16.6 µM (inactive) | 95.9 µM (inactive) | > 100 µM (inactive) | > 100 µM (inactive) | –
